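Each compound was tested at five concentrations against cells in 96-well plates for 48 hours. The concentration for 50% growth inhibition is given as GI50.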 Calls of active or inactive are those of the source. Cut-off read from the data, not from the text of the source: active = GI50 up to about 1.1 µM and inactive = higher.
Columns and labels:
Assay in all cases: growth of human tumour cells (NCI), 48 h
A549 = system: A549
DU-145 = system: DU-145
EKVX = system: EKVX
HOP-62 = system: HOP-62
HOP-92 = system: HOP-92
HT-29 = system: HT-29
IGROV-1 = system: IGROV-1
MCF7 = system: MCF7
NCI-H23 = system: NCI-H23
RXF 393 = system: RXF 393
SF-539 = system: SF-539
SK-MEL-2 = system: SK-MEL-2
SK-MEL-5 = system: SK-MEL-5
SK-OV-3 = system: SK-OV-3
SN12C = system: SN12C
SNB-75 = system: SNB-75
SR = system: SR
SW-620 = system: SW-620
UACC-62 = system: UACC-62
UO-31 = system: UO-31

Row | SMILES | GI50 (A549) | GI50 (DU-145) | GI50 (EKVX) | GI50 (HOP-62) | GI50 (HOP-92) | GI50 (HT-29) | GI50 (IGROV-1) | GI50 (MCF7) | GI50 (NCI-H23) | GI50 (RXF 393) | GI50 (SF-539) | GI50 (SK-MEL-2) | GI50 (SK-MEL-5) | GI50 (SK-OV-3) | GI50 (SN12C) | GI50 (SNB-75) | GI50 (SR) | GI50 (SW-620) | GI50 (UACC-62) | GI50 (UO-31)
1 | C[N+](CCCl)(CCCl)Cc1cccc2cccc([N+](=O)[O-])c12 | 97.3 µM (inactive) | > 100 µM (inactive) | > 100 µM (inactive) | 89.1 µM (inactive) | > 100 µM (inactive) | 55.8 µM (inactive) | 56.4 µM (inactive) | 38.2 µM (inactive) | 30 µM (inactive) | > 100 µM (inactive) | 94.8 µM (inactive) | > 100 µM (inactive) | 53.3 µM (inactive) | > 100 µM (inactive) | 45.5 µM (inactive) | > 100 µM (inactive) | 5.83 µM (inactive) | > 100 µM (inactive) | > 100 µM (inactive) | > 100 µM (inactive)
2 | O=C(CCN1CCCCC1)c1csc2ccccc12 | > 100 µM (inactive) | > 100 µM (inactive) | > 100 µM (inactive) | > 100 µM (inactive) | > 100 µM (inactive) | > 100 µM (inactive) | > 100 µM (inactive) | 20 µM (inactive) | > 100 µM (inactive) | > 100 µM (inactive) | > 100 µM (inactive) | > 100 µM (inactive) | > 100 µM (inactive) | > 100 µM (inactive) | > 100 µM (inactive) | > 100 µM (inactive) | > 100 µM (inactive) | > 100 µM (inactive) | > 100 µM (inactive) | > 100 µM (inactive)
3 | CCOC(=O)C(NC(=O)c1ccccc1)(N1CCOCC1)C(F)(F)F (configuration not stated) | > 100 µM (inactive) | > 100 µM (inactive) | > 100 µM (inactive) | > 100 µM (inactive) | > 100 µM (inactive) | > 100 µM (inactive) | > 100 µM (inactive) | > 100 µM (inactive) | > 100 µM (inactive) | > 100 µM (inactive) | > 100 µM (inactive) | > 100 µM (inactive) | > 100 µM (inactive) | > 100 µM (inactive) | > 100 µM (inactive) | > 100 µM (inactive) | > 100 µM (inactive) | > 100 µM (inactive) | > 100 µM (inactive) | > 100 µM (inactive)
4 | Cc1cc(O)c2c(c1)CC(O)C1=C2C(=O)c2c(O)ccc(OC3CC(O)C(OC4CC(OC5CCC(O)C(C)O5)C(O)C(C)O4)C(C)O3)c2C1=O (configuration not stated) | 2.33 µM (inactive) | 1.72 µM (inactive) | 1.89 µM (inactive) | 1.59 µM (inactive) | 1.86 µM (inactive) | 2.27 µM (inactive) | 1.47 µM (inactive) | 1.39 µM (inactive) | 1.83 µM (inactive) | 1.46 µM (inactive) | 1.85 µM (inactive) | 1.58 µM (inactive) | 1.43 µM (inactive) | 2.33 µM (inactive) | 1.73 µM (inactive) | 2.74 µM (inactive) | 0.324 µM (active) | 0.518 µM (active) | 1.68 µM (inactive) | 1.5 µM (inactive)
5 | NCCCN(CCCCN(CCCN)CCCc1ccccc1)CCCc1ccccc1 | 3.23 µM (inactive) | 8.11 µM (inactive) | 2.99 µM (inactive) | 9.89 µM (inactive) | 6.97 µM (inactive) | 1.85 µM (inactive) | 2.65 µM (inactive) | 1.96 µM (inactive) | 4.32 µM (inactive) | 2.37 µM (inactive) | 1.86 µM (inactive) | 1.69 µM (inactive) | 1.83 µM (inactive) | 4.16 µM (inactive) | 3.9 µM (inactive) | 1.93 µM (inactive) | 2.31 µM (inactive) | 2.86 µM (inactive) | 1.74 µM (inactive) | 2.19 µM (inactive)
6 | COC(=O)C1(SC)C2CCC3C2CCC31 (configuration not stated) | > 100 µM (inactive) | > 100 µM (inactive) | > 100 µM (inactive) | > 100 µM (inactive) | > 100 µM (inactive) |  | > 100 µM (inactive) | > 100 µM (inactive) | > 100 µM (inactive) | > 100 µM (inactive) | > 100 µM (inactive) | > 100 µM (inactive) | > 100 µM (inactive) | > 100 µM (inactive) | > 100 µM (inactive) | > 100 µM (inactive) | > 100 µM (inactive) | > 100 µM (inactive) |  | > 100 µM (inactive)
7 | O=c1[nH]c(=S)[nH]cc1CN1CCOCC1 | > 100 µM (inactive) | > 100 µM (inactive) | > 100 µM (inactive) | > 100 µM (inactive) | > 100 µM (inactive) | > 100 µM (inactive) | > 100 µM (inactive) | > 100 µM (inactive) | > 100 µM (inactive) | > 100 µM (inactive) | > 100 µM (inactive) | > 100 µM (inactive) | > 100 µM (inactive) | > 100 µM (inactive) | > 100 µM (inactive) | > 100 µM (inactive) | > 100 µM (inactive) | > 100 µM (inactive) | > 100 µM (inactive) | > 100 µM (inactive)
8 | O=C1C=C(Nc2ccc(Br)cc2)c2ccccc2/C1=N/O | 1.98 µM (inactive) | 1.77 µM (inactive) | 35.5 µM (inactive) | 2.78 µM (inactive) | 17.6 µM (inactive) | 12.1 µM (inactive) | 32.6 µM (inactive) | 4.16 µM (inactive) | 1.28 µM (inactive) | 16.4 µM (inactive) | 9.48 µM (inactive) | 1.5 µM (inactive) | 0.989 µM (active) | 12.9 µM (inactive) | 10.6 µM (inactive) | 2.75 µM (inactive) | 9.38 µM (inactive) | 4.32 µM (inactive) | 1.73 µM (inactive) | 6.64 µM (inactive)
9 | Cc1ccc(S(=O)(=O)N2CCN(S(=O)(=O)c3ccc(C)cc3)CCN(S(=O)(=O)c3ccc(C)cc3)Cc3cc(Br)c(Br)cc3CN(S(=O)(=O)c3ccc(C)cc3)CC2)cc1 | > 100 µM (inactive) | > 100 µM (inactive) | 68.2 µM (inactive) | > 100 µM (inactive) | 23.6 µM (inactive) | > 100 µM (inactive) | 85.5 µM (inactive) | > 100 µM (inactive) | > 100 µM (inactive) | > 100 µM (inactive) | > 100 µM (inactive) |  | > 100 µM (inactive) | > 100 µM (inactive) | > 100 µM (inactive) | 55.6 µM (inactive) | > 100 µM (inactive) | 97.7 µM (inactive) | > 100 µM (inactive) | > 100 µM (inactive)
10 | COC(=O)c1cc(C#N)[nH]c1-c1ccsc1 | > 100 µM (inactive) | > 100 µM (inactive) | 74.8 µM (inactive) | > 100 µM (inactive) | > 100 µM (inactive) | > 100 µM (inactive) | > 100 µM (inactive) | 10 µM (inactive) | > 100 µM (inactive) | 72.4 µM (inactive) |  | > 100 µM (inactive) | > 100 µM (inactive) | > 100 µM (inactive) | > 100 µM (inactive) | > 100 µM (inactive) | 29.9 µM (inactive) | > 100 µM (inactive) | > 100 µM (inactive) | 46.3 µM (inactive)
11 | OC(C/C(=N\N=C(/CC(O)(C(F)(F)F)C(F)(F)F)c1ccccc1)c1ccccc1)(C(F)(F)F)C(F)(F)F | > 10 µM (inactive) | > 10 µM (inactive) | > 10 µM (inactive) | > 10 µM (inactive) | > 10 µM (inactive) | > 10 µM (inactive) | > 10 µM (inactive) | > 10 µM (inactive) | > 10 µM (inactive) | 3.17 µM (inactive) | > 10 µM (inactive) | > 10 µM (inactive) | > 10 µM (inactive) | > 10 µM (inactive) | > 10 µM (inactive) | > 10 µM (inactive) | > 10 µM (inactive) | > 10 µM (inactive) | > 10 µM (inactive) | 
12 | CC(=O)C1=CN=C2C(=O)N(c3ccccc3)N(C)C12C (configuration not stated) | > 100 µM (inactive) | > 100 µM (inactive) | > 100 µM (inactive) |  | > 100 µM (inactive) |  | > 100 µM (inactive) | > 100 µM (inactive) | > 100 µM (inactive) | > 100 µM (inactive) | > 100 µM (inactive) | > 100 µM (inactive) | > 100 µM (inactive) | > 100 µM (inactive) | > 100 µM (inactive) | 24.7 µM (inactive) | > 100 µM (inactive) | > 100 µM (inactive) | > 100 µM (inactive) | > 100 µM (inactive)
13 | CN(C)c1ccc(/C=C2\N=C(NN)NC2=O)cc1 | 61.8 µM (inactive) | 76.7 µM (inactive) | 31.9 µM (inactive) | > 100 µM (inactive) | 59.8 µM (inactive) | 31.3 µM (inactive) | 75.5 µM (inactive) | 54.8 µM (inactive) | > 100 µM (inactive) | 63.5 µM (inactive) | 35.2 µM (inactive) | > 100 µM (inactive) |  | > 100 µM (inactive) | > 100 µM (inactive) | > 100 µM (inactive) | 23.4 µM (inactive) | 98.2 µM (inactive) | > 100 µM (inactive) | 94.6 µM (inactive)
14 | CCN(CC)CCNC(=O)c1cn2c(ccc3sc4ccccc4c(=O)c32)n1 | 4.36 µM (inactive) | 12 µM (inactive) | 14.6 µM (inactive) | 5.96 µM (inactive) | 8.91 µM (inactive) | 6.89 µM (inactive) | 5.38 µM (inactive) | 5.87 µM (inactive) | 11.2 µM (inactive) | 8.22 µM (inactive) | 10.8 µM (inactive) | 21 µM (inactive) | 7.26 µM (inactive) | 12.1 µM (inactive) | 9.33 µM (inactive) | 16.3 µM (inactive) | 1.25 µM (inactive) | 6.25 µM (inactive) | 15.1 µM (inactive) | 7.03 µM (inactive)

Source: ChEMBL document CHEMBL1201862, “PubChem BioAssay data set” (2004)
